Measured values from patent US11266663B2, “Treatment of neuropsychiatric disorders with neurosteroids and analogues thereof” (THE BOARD OF TRUSTEES OF THE UNIVERSITY OF ILLINOIS, priority 2017, dated 2022).
Several values for one entry are separate records, joined by “and”; a condition that tells them apart may be missing. Equal values may be shown once. Entries after “also recorded” stand apart in the source; their conditions may differ.

What was measured:
[1] = tested on: post-partum depression patients; details: two-day course of intravenous infusion; cited from earlier work
[2] = tested on: early and late adolescent SI mice; assay: Resident-intruder test, aggressive behavior of socially isolated (SI) mice; type: in vivo, Swiss-Webster mice; details: for reduction in the number of attacks vs. basal value / EC50 dose, decrease of aggression: 60 min before test; for “Non-responders” Early SI mice (%) / “Non-responders” Late SI mice (%): decrease of aggression <=30% vs basal; for EC50 dose, decrease of aggression: i.p.
Text: Male Swiss-Webster mice (Harlan Breeders) (18-30 g body weight), maintained under a 12-h dark/light cycle with food and water ad libitum were used for all experiments. Mice were housed individually in a cage of dimensions 24 cm×17 cm×12 cm. For these experiments, two mice experimental groups were used for the study of drug effect in different age conditions. The first group was isolated at 21 days (“early adolescent SI mice,” PND 21), while the second group at 45 days (“late adolescent SI mice,” PND 45). The animals were exposed to behavioral testing after 6 weeks of isolation. The vivarium temperature was kept at 24° C. and the humidity near 65%.
[…] All the drugs were dissolved in saline solution containing 0.5% Tween-80 (Sigma Aldrich, St. Louis, Mo., United States), and were injected intraperitoneally (i.p.), 60 min before behavioral tests.
To test aggression, a male intruder mouse of the same strain as the resident mouse, was placed in a resident home cage (24 cm×17 cm×12 cm) and resident-intruder interactions were videotaped for 10 min. Aggressive behavior of SI mice was characterized by an initial pattern of exploratory activity around the intruder, followed by rearing and tail rattle, accompanied within a few seconds by wrestling and/or a violent biting attacks. The total number of wrestling and attacks during the 10 min observation period was measured as previously described (Pinna et al., 2003, 2005), 60 min after drug administration. For every drug studied, SI mice were first exposed to three behavioral sessions, and then the average of basal aggression level for every single SI mouse was calculated; 2 days later, aggression levels following treatment were tested. Treated animals showing a reduction of the number of attacks less than 30% vs. the respective basal control values were considered as “low- to non-responders.”
Results are presented as means±SEMs unless otherwise indicated. Student's t-test, one-way ANOVA and two-way ANOVA repeated measures followed by Bonferroni post hoc test were performed to analyze experimental data; significance was set at p<0.05. EC50 values were calculated from dose-response curves analyzed by the “quantal dose-response: probits test” using the computer program of Tallarida and Murray equipped with a statistical package (Tallarida and Murray, 1987). Statistical comparisons among the different ECsos were performed with the “cohort package software.” (available at cohort.com).

[3] = tested on: early and late adolescent SI mice; assay: Locomotor activity test; type: in vivo, Swiss-Webster mice; details: all doses tested, i.p., 60 min before test, 10 min recording
Description: BR351 (1-5 mg/kg) and BR297 (0.3125-2.5 mg/kg) were obtained from NeuroRhine Consortium (Strasbourgh, France). All the drugs were dissolved in saline solution containing 0.5% Tween-80 (Sigma Aldrich, St. Louis, Mo., United States), and were injected intraperitoneally (i.p.), 60 min before behavioral tests.
A computerized AccuScan 12 Animal Activity Monitoring System (Columbus Instruments, Columbus, Ohio, United States) assisted by VERSAMAX software (AccuScan Instruments, Columbus, Ohio, United States) was used to quantify locomotor activity (Pinna et al., 1997, 2006a). Each activity cage was made of a 20 cm×20 cm×20 cm Perspex box surrounded by horizontal and vertical infrared sensor beams. Horizontal sensors' beam interruptions were taken as a measure of horizontal activity.

[4] = tested on: early and late adolescent SI mice; details: i.p., previously established in Pinna and Rasmusson, 2014; cited from earlier work
[5] = early SI mice, single dose 2.5 mg/kg
[6] = early SI mice, single dose, dose not stated (FIG. 5 legend)
[7] = early adolescent SI mice (PND 21)
[8] = late SI mice, single dose 2.5 mg/kg (given in mg)
[9] = late SI mice, single dose, dose not stated (FIG. 5 legend)
[10] = late adolescent SI mice (PND 45)

CC(=O)C1CC[C@H]2[C@@H]3CCC4C[C@H](O)CC[C@]4(C)[C@H]3CC[C@]12C (stereo partly shown) [Allo, allopregnanolone]
duration of symptom improvement [1]: 30 days
remission of post-partum depression, patients [1]: 70%
time to symptom improvement [1]: 60 h

C=CCO[C@H]1CC[C@]2(C)C3CC[C@@]4(C)C(CC[C@@H]4C(C)=O)C3CC[C@H]2C1 (stereo partly shown) [BR297]
difference of anti-aggressive effect, late compared with early SI mice ([2]; 2.5 mg/kg i.p., trend, p=0.108): +235%
reduction in the number of attacks vs. basal value ([2]; early SI mice (PND 21), 0.3125 mg/kg i.p.): −59%
reduction in the number of attacks vs. basal value ([2]; early SI mice (PND 21), 0.625 mg/kg i.p.): −61%
reduction in the number of attacks vs. basal value ([2]; early SI mice (PND 21), 2.5 mg/kg i.p.): −70%
“Non-responders” Early SI mice (%) ([2]; early SI mice, single dose 0.3125 mg/kg (given in mg)): 30.0%
“Non-responders” Early SI mice (%) ([2]; early SI mice, single dose 0.625 mg/kg (given in mg)): 21.4%
“Non-responders” Early SI mice (%) ([2]; early SI mice, single dose 2.5 mg/kg (given in mg), 2.5 mg/kg): 6.25% and 6.3%
duration of anti-aggressive effect (time until aggression rebounded to basal values) ([2]; early SI mice, single dose 0.3125 mg/kg): 3 days
duration of anti-aggressive effect (time until aggression rebounded to basal values) ([2]; early SI mice, single dose 0.625 mg/kg): 7 days
duration of anti-aggressive effect (time until aggression rebounded to basal values) [2, 5]: 7 days
duration of anti-aggressive effect (time until aggression rebounded to basal values) [2, 6]: 7 days
EC50 dose, decrease of aggression [2, 7]: 0.25 mg/kg
reduction in the number of attacks vs. basal value ([2]; late SI mice (PND 45), 0.3125 mg/kg i.p.): −60%
reduction in the number of attacks vs. basal value ([2]; late SI mice (PND 45), 0.625 mg/kg i.p.): −63%
reduction in the number of attacks vs. basal value ([2]; late SI mice (PND 45), 2.5 mg/kg i.p.): −91%
“Non-responders” Late SI mice (%) ([2]; late SI mice, single dose 0.3125 mg/kg (given in mg)): 18.2%
“Non-responders” Late SI mice (%) ([2]; late SI mice, single dose 0.625 mg/kg (given in mg)): 18.2%
“Non-responders” Late SI mice (%) [2, 8]: 0%
duration of anti-aggressive effect (time until aggression rebounded to basal values) ([2]; late SI mice, single dose 0.3125 mg/kg): 3 days
duration of anti-aggressive effect (time until aggression rebounded to basal values) ([2]; late SI mice, single dose 0.625 mg/kg): 9 days
duration of anti-aggressive effect (time until aggression rebounded to basal values) [2, 9]: 9 days
EC50 dose, decrease of aggression [2, 10]: 0.25 mg/kg
effect on locomotor (exploratory) activity [3]: failed to alter locomotion patterns

C=CCO[C@@H]1CC[C@]2(C)C3CC[C@@]4(C)C(CC[C@@H]4C(C)=O)C3CC[C@H]2C1 (stereo partly shown) [BR351]
difference of anti-aggressive effect, late compared with early SI mice ([2]; 5 mg/kg i.p., trend, p=0.0801): +179%
reduction in the number of attacks vs. basal value ([2]; early SI mice (PND 21), 5 mg/kg i.p.): −56%
“Non-responders” Early SI mice (%) ([2]; early SI mice, single dose 1 mg/kg (given in mg)): 50.0%
“Non-responders” Early SI mice (%) ([2]; early SI mice, single dose 2.5 mg/kg (given in mg)): 20.0%
“Non-responders” Early SI mice (%) ([2]; early SI mice, single dose 5 mg/kg (given in mg), 5 mg/kg): 13.33% and 13.3%
duration of anti-aggressive effect (time until aggression rebounded to basal values) ([2]; early SI mice, single dose 1 mg/kg): rapidly extinguished
duration of anti-aggressive effect (time until aggression rebounded to basal values) [2, 5]: 5 days
duration of anti-aggressive effect (time until aggression rebounded to basal values) ([2]; early SI mice, single dose 5 mg/kg): 3 days
EC50 dose, decrease of aggression [2, 7]: 4.5 mg/kg
reduction in the number of attacks vs. basal value ([2]; late SI mice (PND 45), 5 mg/kg i.p.): −80%
“Non-responders” Late SI mice (%) ([2]; late SI mice, single dose 1 mg/kg (given in mg)): 54.6%
“Non-responders” Late SI mice (%) [2, 8]: 40.0%
“Non-responders” Late SI mice (%) ([2]; late SI mice, single dose 5 mg/kg (given in mg), 5 mg/kg): 8.33% and 8.3%
duration of anti-aggressive effect (time until aggression rebounded to basal values) ([2]; late SI mice, single dose 1 mg/kg): 1 days
duration of anti-aggressive effect (time until aggression rebounded to basal values) ([2]; late SI mice, single dose 2.5 mg/kg): 5 days
duration of anti-aggressive effect (time until aggression rebounded to basal values) ([2]; late SI mice, single dose 5 mg/kg): 5 days
EC50 dose, decrease of aggression [2, 10]: 3.75 mg/kg
effect on locomotor (exploratory) activity [3]: failed to alter locomotion patterns

CC(=O)[C@H]1CC[C@H]2[C@@H]3CC[C@H]4C[C@](C)(O)CC[C@]4(C)[C@H]3CC[C@]12C [GNX, ganaxolone, reference compound]
difference of anti-aggressive effect, late compared with early SI mice ([2]; 10 mg/kg i.p.): +197%
reduction in the number of attacks vs. basal value ([2]; early SI mice (PND 21), 10 mg/kg i.p.): −72%
“Non-responders” Early SI mice (%) ([2]; early SI mice, single dose 10 mg/kg (given in mg), 10 mg/kg): 25%
reduction in the number of attacks vs. basal value ([2]; late SI mice (PND 45), 10 mg/kg i.p.): −46%
“Non-responders” Late SI mice (%) ([2]; late SI mice, single dose 10 mg/kg (given in mg), 10 mg/kg): 15.38% and 15.4%
duration of anti-aggressive effect (time until aggression rebounded to basal values) ([2]; late SI mice, single dose 10 mg/kg (EC50 dose)): 5 days
EC50 dose [4]: 10 mg/kg
effect on locomotor (exploratory) activity [3]: failed to alter locomotion patterns

CCCCCCCCCCCCCCCC(=O)NCCO [PEA, N-palmitoylethanolamine]
effect on locomotor (exploratory) activity [3]: not altered

CNCC[C@H](Oc1ccc(C(F)(F)F)cc1)c1ccccc1 [S-FLX, S-fluoxetine, reference compound]
duration of anti-aggressive effect (time until aggression rebounded to basal values) ([2]; early SI mice, single dose 0.375 mg/kg): 1 days
duration of anti-aggressive effect (time until aggression rebounded to basal values) ([2]; early SI mice, single dose 0.75 mg/kg): 3 days
duration of anti-aggressive effect (time until aggression rebounded to basal values) [2, 6]: 3 days
reduction in the number of attacks vs. basal value ([2]; late SI mice (PND 45), 0.75 mg/kg i.p.): −52%
duration of anti-aggressive effect (time until aggression rebounded to basal values) ([2]; late SI mice, single dose 0.375 mg/kg): 1 days
duration of anti-aggressive effect (time until aggression rebounded to basal values) ([2]; late SI mice, single dose 0.75 mg/kg): 3 days
duration of anti-aggressive effect (time until aggression rebounded to basal values) [2, 9]: 3 days
effect on locomotor (exploratory) activity [3]: did not reduce exploratory activity; also recorded: failed to alter locomotion patterns
